The results in this text go back to publication PMC9734138, “Structure of the AlgKX modification and secretion complex required for alginate production and biofilm attachment in Pseudomonas aeruginosa” (Nature Communications, 2022).

In assay [1] the target is AlgKPp (Pseudomonas putida, UniProt Q88NC7). Description: Direct nanoESI-MS binding assay of the single proteins with reference protein correction for nonspecific binding, 200 mM aqueous ammonium acetate pH 7, 25 °C by the table title (21 °C in the methods). Also on record: gene algK. Here is the method: (§1) AlgXPp and AlgKPp stock solutions were buffer exchanged into 200 mM aqueous ammonium acetate (pH 7) using a 10 kDa cut-off Amicon 0.5 mL microconcentrators (EMD, Millipore, Billerica, MA). Stock solutions of oligosaccharides were prepared by dissolving a known amount of solid compound in Milli-Q water and stored at −20 °C until used. Nanoelectrospray (nanoESI) mass spectrometry measurements were performed on a Q Exactive Orbitrap (Orbitrap) mass spectrometer (Thermo Fisher Scientific, Bremen, Germany) and on a Q Exactive Ultra-High Mass Range Orbitrap mass spectrometer (Thermo Fisher Scientific, Bremen, Germany), both equipped with a nanoflow ESI source. NanoESI was performed by applying a voltage of ~0.8 kV to a platinum wire inserted into the nanoESI tip, which was produced from a borosilicate glass capillary (1.0 mm o.d., 0.78 mm i.d.) pulled to ~2 μm o.d. using a P − 1000 micropipette puller (Sutter Instruments, Novato, CA). The inlet capillary of the MS was heated to 120 °C, the S-lens RF level was set at 100, automatic gain control target was set at 1 × 10^6 with a maximum injection time of 200 ms. All MS data were acquired and processed using Thermo Xcalibur 4.1 software.
(§2) Association constants (Ka,kL and Ka,xL) for interactions of AlgKPp and AlgXPp with oligosaccharide ligands were obtained using the direct ESI-MS assay[68],[69]. The binding measurements were carried out at 21 °C, and the equilibrium mixtures were prepared by mixing aliquots of the stock solutions of proteins and ligands in aqueous ammonium acetate (200 mM). ESI-MS measurements were performed after a 1 h incubation time period. All mass spectra were corrected, when needed, for the occurrence of nonspecific carbohydrate-protein binding during the ESI process using the reference protein method. Ka,kL and Ka,xL values were determined from the abundance ratio (R) of the ligand-bound (PL) to free protein (P) ions (P can be AlgKPp or AlgXPp), after correction for nonspecific ligand binding, and the initial concentrations of protein ([P]0) and ligand ([L]0), Eq. (1):1 R/R+1=KaP0+KaL0+1−(1−KaL0+KaP0)^2+4KaL0/2KaP0 where R is taken to be equal to the corresponding equilibrium concentration ratio ([PL]/[P]) in solution, Eq. (2):2 R=∑Ab(PL)/∑Ab(P)=[PL]/[P] and Ka is Ka,kL or Ka,xL.

Assay [2] addresses T1, AlgXPp (Pseudomonas putida, UniProt Q88ND0). The assay is described as above. Also on record: gene algX. As to the method: as §1, §2
Target sequence in this assay (Q88ND0 whole entry): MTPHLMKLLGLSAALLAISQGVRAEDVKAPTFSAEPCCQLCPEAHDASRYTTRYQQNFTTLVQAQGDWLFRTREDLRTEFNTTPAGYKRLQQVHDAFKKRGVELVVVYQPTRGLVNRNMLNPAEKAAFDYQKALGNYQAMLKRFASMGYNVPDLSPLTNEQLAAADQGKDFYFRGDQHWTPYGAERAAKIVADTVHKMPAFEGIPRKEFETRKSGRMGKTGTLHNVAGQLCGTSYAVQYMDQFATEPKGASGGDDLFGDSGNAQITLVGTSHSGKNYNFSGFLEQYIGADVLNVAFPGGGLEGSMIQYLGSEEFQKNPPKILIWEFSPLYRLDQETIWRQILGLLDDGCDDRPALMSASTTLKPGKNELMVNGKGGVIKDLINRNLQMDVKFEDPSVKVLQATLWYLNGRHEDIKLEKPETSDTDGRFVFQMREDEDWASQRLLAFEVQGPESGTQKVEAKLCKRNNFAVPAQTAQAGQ
In assay [3] the target is AlgKXPp (Pseudomonas putida, UniProt Q88NC7+Q88ND0). As to the kind of experiment: NanoESI-MS ligand titration of the AlgK-AlgX mixture, Ka,kxL fitted from the ligand-bound fraction of the complex with a coupled-equilibria model, 200 mM aqueous ammonium acetate pH 7, 25 °C by the table title (21 °C in the methods). Format: binding. To be noted: n = 3. As to the method:
as §1
(§3) The Ka,kx for the interaction of AlgKPp and AlgXPp with the formation of AlgKXPp complex was obtained using the Slow Mixing Mode (SLOMO) ESI-MS assay. Briefly, ~2 µL of a solution of AlgXPp (5 µM) and AlgKPp (3–10 µM) was introduced into the nanoESI tip, followed by injection of 10 µL of solution of AlgXPp (5 µM) and AlgKPp (45 µM). The binding measurements were carried out at 21 °C; time-resolved mass spectra were averaged over 1 min intervals and the sum of the charge state-normalized abundances of the […] and AlgKXPp complex ions were calculated automatically using the SWARM software (https://github.com/pkitov/CUPRA-SWARM)[72]. The corrected (for response factors) abundances of AlgXPp and AlgKXPp species were used to calculate R/(R+1) values for AlgKPp (designated as L) and AlgXPp (designated as P) interaction and association constant Ka,kx was found using Eq. (1) (Ka,kx in this case designated as Ka in Eq. (1)).
(§4) 3b AlgXPpL⇌AlgXPp+L,Ka,xL=[AlgXPpL]/AlgXPp[L] 3c AlgKXPp⇌AlgKPp+AlgXPp,Ka,kx=[AlgKXPpL]/AlgKPp[AlgXPp] 3d AlgKXPpL⇌AlgKXPp+L,Ka,kxL=[AlgKXPL]/AlgKXPpLL
(§5) The corresponding mass balance equations are shown below:4a [L]0=[L]+[AlgKPpL]+[AlgXPpL]+[AlgKXPpL] 4b [AlgKPp]0=[AlgKPp]+[AlgKPpL]+[AlgKXPp]+[AlgKXPpL] 4c [AlgXPp]0=[AlgXPp]+[AlgXPpL]+[AlgKXPp]+[AlgKXPpL] where […], […], and [L]0 are initial concentrations of AlgKPp, AlgXPp, and oligosaccharide ligand L; Ka,kL, Ka,xL, and Ka,kx are association constant values determined as described above, and Ka,kxL is unknown parameter found by the fitting of the model to experimental data.

Assay [4] has as its target T2, AlgKXPp complex (Pseudomonas putida, UniProt Q88NC7+Q88ND0).
T2 construct: Induced cells containing either pET26b P. putida AlgK^33–484 or pET24b P. putida AlgX^∆Nterm; His6 (C); made in house; host or cells: E. coli BL21 (DE3) CodonPlus (AlgK) and E. coli Lemo21 (DE3) (AlgX)
Description: ESI-MS alginate binding assay, AlgKXPp complex (binding model fit). To be noted: AlgKPp and AlgXPp 5 µM each, ligand 100 µM, ammonium acetate 200 mM pH 7.0. As to the method: as §1, §4, §5

For assay [5], the target named is T1, AlgXPp. As to the kind of experiment: Slow Mixing Mode (SLOMO) ESI-MS assay of AlgKPp-AlgXPp complex formation. Format: binding. Also on record: His6 (C); made in house; host or cells: E. coli Lemo21 (DE3). The conditions noted are these: for Fraction of bound AlgX: mean, n = 3. As to the method:
as §1, §3

[6] abbreviates: read-out: Ka (M^-1) (AlgKPp), Ka (M^-1) (AlgXPp).

AlgKXPp, sequence (Q88ND0 whole entry, one chain of several): as the sequence (Q88ND0 whole entry) above

Take `CCCO[C@@H]1O[C@H](C(=O)O)[C@@H](O[C@@H]2O[C@H](C(=O)O)[C@@H](O[C@@H]3O[C@H](C(=O)O)[C@@H](O[C@@H]4O[C@H](C(=O)O)[C@@H](O[C@@H]5O[C@H](C(=O)O)[C@@H](O[C@@H]6O[C@H](C(=O)O)[C@@H](O[C@@H]7O[C@H](C(=O)O)[C@@H](O)[C@H](O)[C@@H]7O)[C@H](O)[C@@H]6O)[C@H](O)[C@@H]5O)[C@H](O)[C@@H]4O)[C@H](O)[C@@H]3O)[C@H](O)[C@@H]2O)[C@H](O)[C@@H]1O` [ManA7, heptamer of beta-D-mannuronic acid (1-4 linked, polyM heptasaccharide)]: the figures for the Kd in assay [1] (setting [6]), in assay [2] (setting [6]) and in assay [3] (read-out: Ka (M^-1) (AlgKXPp)) were 2380 µM, 3850 µM and 1000 µM, respectively.

Consider “alginate heptasaccharide of alternating alpha-L-guluronate (G) and beta-D-mannuronate (M) [GMGMGMG]”, for which the “Ka (M^-1) (AlgKPp); Ka (M^-1) (AlgXPp)” value in assay [2] was “(2.7 ± 0.3) × 10^2 M-1”. Besides, the “Ka (M^-1) (AlgKXPp)” value in assay [3] was “(18 ± 0.6) × 10^2 M-1”.

For “alginate hexasaccharide of alpha-L-guluronate (G) and beta-D-mannuronate (M), sequence GMGGMG”, the entries for the “Ka (M^-1) (AlgKPp); Ka (M^-1) (AlgXPp)” value in assay [1] and in assay [2] were “(3.0 ± 0.9) × 10^2 M-1” and “(1.4 ± 0.3) × 10^2 M-1”, respectively. Moreover, the “Ka (M^-1) (AlgKXPp)” value in assay [3] is “(5.4 ± 0.5) × 10^2 M-1”.

Regarding “alginate hexasaccharide of alternating alpha-L-guluronate (G) and beta-D-mannuronate (M) [GMGMGM]”, the “Ka (M^-1) (AlgKPp); Ka (M^-1) (AlgXPp)” value in assay [1] is “(2.5 ± 0.1) × 10^2 M-1”; in assay [2], “(4.5 ± 1.0) × 10^2 M-1”. Also, in assay [3], the “Ka (M^-1) (AlgKXPp)” value was “(12 ± 0.7) × 10^2 M-1”.

On to “pentadeca-hyaluronic acid [HA15, reference compound]”, for which the “ligand binding to AlgKXPp detected by ESI-MS” value is on record as “No ligand binding was detected” in assay [4] and “no specific binding” in assay [4] (listed as 15-mer of hyaluronic acid).

B1: AlgKXPp: 1:1 complex of P. putida AlgK and AlgX (protein, UniProt Q88NC7 33-484; Q88ND0 25-479, looked up)
Alginate biosynthesis protein … 1: CAGLPDQRLANEALKRGDTALAERNYKALADLGYSEAQVGLADIKVATRDPSQIKEAEATYRAAAATSPRAQARLGRLLVAKPDSTQAEREEAETLLKQAAKQGQSNTLIPLAMLYLSYPQSFPKVNAQQQIDQWRAAGNPEAGLAQVLLYRTQGTYDQHLGEVEKICKAALNTTDICYVELATVYQKRGQADQQAALLGQLKSAYARGAVPATRVDSVARVLADRSLGQTDEKTAKELLEQVAPANPASWVSLAQLVYDFPELGDTDQLMAYIDKGREAEQPRAELLLGRLYYEGKTLPADAQKAEQHLQAAAEAGEISAHYYLGQLYRRGYLGNVEPQKAVDHLLAAARGGQNSADYALAQLFSEGHGIRPQPGNAWVFAQLSQANPTPQSAELLQQLDQQLTPDQRNQAQQLLDQEKRARGSLAQGANSTLALEALQDDEKEVDGEDSL
Alginate biosynthesis protein … 2: EDVKAPTFSAEPCCQLCPEAHDASRYTTRYQQNFTTLVQAQGDWLFRTREDLRTEFNTTPAGYKRLQQVHDAFKKRGVELVVVYQPTRGLVNRNMLNPAEKAAFDYQKALGNYQAMLKRFASMGYNVPDLSPLTNEQLAAADQGKDFYFRGDQHWTPYGAERAAKIVADTVHKMPAFEGIPRKEFETRKSGRMGKTGTLHNVAGQLCGTSYAVQYMDQFATEPKGASGGDDLFGDSGNAQITLVGTSHSGKNYNFSGFLEQYIGADVLNVAFPGGGLEGSMIQYLGSEEFQKNPPKILIWEFSPLYRLDQETIWRQILGLLDDGCDDRPALMSASTTLKPGKNELMVNGKGGVIKDLINRNLQMDVKFEDPSVKVLQATLWYLNGRHEDIKLEKPETSDTDGRFVFQMREDEDWASQRLLAFEVQGPESGTQKVEAKLCKRNNFAVPAQTAQAGQ
As to B1, the “association constant (Ka) for 1:1 AlgKXPp complex formation” value in assay [5] (SLOMO ESI-MS, AlgXPp 5 µM, 21 °C) is recorded as 8.9 ± 0.9 × 10^4 M^−1.

B2: AlgK: P. putida KT2440 AlgK residues 33–484, His-tagged TPR-containing lipoprotein (protein)
chain: CAGLPDQRLAQEALERGDLATAQSNYQALAAMGYADAQVGLADMQVASGDSAQQAKAEKLYREAAQTSPRARARLGKWLAAKPGASDAEHREAERLLSQAFEQGEDSALVPLIVLYLQYPQSWPEIDPQQRIDQWRARGLPQADLAQIILYRTQGTYAQHLGEIEQVCQRWLRRMDVCWYELATVYQMQGNAEKQKVLLEQLRAAYKAGRVPGERVDSVAGVLADGELGQPDPQTAQALLEEIAPSYPAAWVSLAKLLYDYPDQGDLEKMLGYLKNAQDAAQPRAELLLGRLYYDGKWAPQDPRKAERHLLKAAASEPQANYYLGQIYRRGFLGKVYPQKAVDHLILAARAGQASADMALAQLWSQGRGIQPNRVNAYVFGQLAVQQQVPQASDLLGQIEAQLPPAERSQAQQLLKREQQSRGNNWQATVSLLQSQDSPINEEEPESL
In the case of B2, the “Fraction of bound AlgX” value in assay [5] (concentration of AlgK 3 µM) is reported as 0.22; in assay [5] (concentration of AlgK 5 µM), 0.24; in assay [5] (concentration of AlgK 7.5 µM), 0.31; in assay [5] (concentration of AlgK 10 µM) it was 0.42.
